What all share (format): in vivo
The nature of experiment [1]: Sensory panel (8 experts): sample added to reference water solution containing 4% sucrose. As to conditions: dosage 0.2 ppm; scale −5 (strong masking) to 5 (strong enhancing), 0 = reference 4% sucrose in water. An excerpt:
(§1) A panel consisting of 8 experts evaluating the samples adding in reference at 0.2 or 5 ppm for their sensory properties (sweet, licorice, sweet lingering) on a scale of −5 to 5 (−5 denoted strong masking effect and 5 denoted strong enhancing effect, 0 being the intensity of a reference water solution containing 4% sucrose, or 0.02% SG95. The results are shown in Table 2.

A short description of experiment [2]: Sensory panel (8 experts): sample added to reference water solution containing 0.02% SG95 (stevia extract). As to conditions: dosage 0.2 ppm; scale −5 to 5, 0 = reference 0.02% SG95 in water.
Source text: as §1

Experiment [3] can be described thus: Sensory panel (8 experts): sweet intensity of sub-threshold sweetener solutions with and without R1 at 50 ppm. As to conditions: for Sweet intensity of the compound solution: without R1. An excerpt:
A panel consisting of 8 experts evaluating R1 adding in various sweeteners at 50 ppm for their sweet properties (0 denoted no sweet taste, 10 denoted too strong sweet taste). The sweetener dosage were designed under their sweetness threshold in water.

The mark [4] stands for this setting: compound 10 ppm in water, scale 0 (no sweet taste) to 10 (too strong sweet taste).
The mark [5] stands for this setting: compound 10 ppm plus R1 (Sichuan pepper oil) 50 ppm, scale 0 to 10.
[6] abbreviates: compound 2.5 ppm in water, scale 0 to 10.
The mark [7] stands for this setting: compound 2.5 ppm plus R1 (Sichuan pepper oil) 50 ppm, scale 0 to 10.

For the compound `C/C=C/C=C/C=C\CC/C=C/C(=O)NCC(C)(C)O` [Compound S1, Hydroxy-α-sanshool], the “ΔSweet intensity to sucrose solution” value in experiment [1] is listed as “+0.3”. In experiment [2], the “ΔLicorice intensity to stevia extract solution” value (shortened to “ΔLicorice intensity”) was “+0.3”, the “ΔLingering intensity to stevia extract solution” value (shortened to “ΔLingering intensity”) is −0.8 and the “ΔSweet intensity tostevia extract solution” value is “+0.1”.

For `C/C=C/C=C/C=C/CC/C=C/C(=O)NCC(C)(C)O` [Compound S3, Hydroxy-β-sanshool], the “ΔSweet intensity to sucrose solution” value in experiment [1] is reported as “+0.5”. In experiment [2], the “ΔLicorice intensity” value is 0, the “ΔLingering intensity” value is −0.4 and the “ΔSweet intensity tostevia extract solution” value was “+0.2”.

Regarding `O=C1C[C@@H](c2ccc(O)c(O)c2)Oc2cc(O)cc(O)c21` [Eriodictyol, eriodictyol], the “Sweet intensity of the compound solution” value in experiment [3] (setting [4]) is 0.03. Moreover, the “Sweet intensity of the compound and R1 blend solution” value in experiment [3] (setting [5]) came out at 1.7.

On to `COc1cc([C@@H]2CC(=O)c3c(O)cc(O)cc3O2)ccc1O` [Homoeriodictyol, homoeriodictyol], for which the “Sweet intensity of the compound solution” value in experiment [3] (setting [4]) came to 0. Moreover, the “Sweet intensity of the compound and R1 blend solution” value in experiment [3] (setting [5]) worked out at 1.7.

Consider `C[C@H](CC[C@@H](O[C@@H]1O[C@H](CO[C@@H]2O[C@H](CO)[C@@H](O)[C@H](O)[C@H]2O)[C@@H](O)[C@H](O)[C@H]1O[C@@H]1O[C@H](CO)[C@@H](O)[C@H](O)[C@H]1O)C(C)(C)O)[C@H]1CC[C@@]2(C)[C@@H]3CC=C4[C@@H](CC[C@H](O[C@@H]5O[C@H](CO[C@@H]6O[C@H](CO)[C@@H](O)[C@H](O)[C@H]6O)[C@@H](O)[C@H](O)[C@H]5O)C4(C)C)[C@]3(C)[C@H](O)C[C@]12C` [Mogroside V, mogroside V], for which the “Sweet intensity of the compound solution” value in experiment [3] (setting [6]) came to 0.08. Also, the “Sweet intensity of the compound and R1 blend solution” value in experiment [3] (setting [7]) is on record as 1.6.

Take `COc1ccc(CCC(=O)c2c(O)cc(O[C@@H]3O[C@H](CO)[C@@H](O)[C@H](O)[C@H]3O[C@@H]3O[C@@H](C)[C@H](O)[C@@H](O)[C@H]3O)cc2O)cc1O` [NHDC, neohesperidin dihydrochalcone]: in experiment [3] (compound 0.5 ppm in water, scale 0 to 10), the “Sweet intensity of the compound solution” value is 0.06. Also, the “Sweet intensity of the compound and R1 blend solution” value in experiment [3] (compound 0.5 ppm plus R1 (Sichuan pepper oil) 50 ppm, scale 0 to 10) is listed as 1.1.

As for `O=C1C[C@@H](c2ccc(O)cc2)Oc2cc(O)cc(O)c21` [Naringenin, naringenin], the “Sweet intensity of the compound solution” value in experiment [3] (setting [4]) turned out to be 0.13. In addition, in experiment [3] (setting [5]), the “Sweet intensity of the compound and R1 blend solution” value stood at 1.3.

Regarding `C=C1C[C@@]23CC[C@H]4[C@@](C)(CCC[C@@]4(C)C(=O)O[C@@H]4O[C@H](CO)[C@@H](O)[C@H](O)[C@H]4O[C@@H]4O[C@H](CO)[C@@H](O)[C@H](O)[C@H]4O)[C@@H]2CC[C@]1(O[C@@H]1O[C@H](CO)[C@@H](O)[C@H](O)[C@H]1O[C@@H]1O[C@H](CO)[C@@H](O)[C@H](O)[C@H]1O)C3` [Reb E, Rebaudioside E], the “Sweet intensity of the compound solution” value in experiment [3] (setting [6]) is on record as 0.06. In experiment [3] (setting [7]), the “Sweet intensity of the compound and R1 blend solution” value turned out to be 1.5.

As for `C=C1C[C@@]23CC[C@H]4[C@@](C)(CCC[C@@]4(C)C(=O)O[C@@H]4O[C@H](CO)[C@@H](O)[C@H](O)[C@H]4O)[C@@H]2CC[C@]1(O[C@@H]1O[C@H](CO)[C@@H](O)[C@H](O[C@@H]2O[C@H](CO)[C@@H](O)[C@H](O)[C@H]2O)[C@H]1O[C@@H]1O[C@H](CO)[C@@H](O)[C@H](O)[C@H]1O)C3` [RebA, Rebaudioside A], in experiment [3] (setting [6]), the “Sweet intensity of the compound solution” value turned out to be 0.19. Further, the “Sweet intensity of the compound and R1 blend solution” value in experiment [3] (setting [7]) worked out at 1.9.

Take `C=C1C[C@@]23CC[C@H]4[C@@](C)(CCC[C@@]4(C)C(=O)O[C@@H]4O[C@H](CO)[C@@H](O)[C@H](O)[C@H]4O)[C@@H]2CC[C@]1(O[C@@H]1O[C@H](CO)[C@@H](O)[C@H](O)[C@H]1O)C3` [Rubusoside, rubusoside]: in experiment [3] (compound 5 ppm in water, scale 0 to 10), the “Sweet intensity of the compound solution” value was 0. The “Sweet intensity of the compound and R1 blend solution” value in experiment [3] (compound 5 ppm plus R1 (Sichuan pepper oil) 50 ppm, scale 0 to 10) worked out at 1.6.

As to `O=C(CCc1ccc(O)cc1)c1c(O)cc(O[C@@H]2O[C@H](CO)[C@@H](O)[C@H](O)[C@H]2O)cc1O` [Trilobatin, trilobatin], the “Sweet intensity of the compound solution” value in experiment [3] (setting [4]) turned out to be 0. Besides, the “Sweet intensity of the compound and R1 blend solution” value in experiment [3] (setting [5]) is on record as 1.5.

Turning to `COc1ccc(CCC(=O)c2c(O)cc(O[C@@H]3O[C@H](CO)[C@@H](O)[C@H](O)[C@H]3O)cc2O)cc1O` [hesperetin dihydrochalcone 4′-O-glucoside], in experiment [3] (setting [6]), the “Sweet intensity of the compound solution” value is 0.04. Further, the “Sweet intensity of the compound and R1 blend solution” value in experiment [3] (setting [7]) is 1.9.

Consider hesperidin dihydrochalcone, for which, in experiment [3] (setting [4]), the “Sweet intensity of the compound solution” value came out at 0.09. Further, in experiment [3] (setting [5]), the “Sweet intensity of the compound and R1 blend solution” value worked out at 1.3.

For the compound hydroxy-γ-sanshool [Compound S2], the “ΔSweet intensity to sucrose solution” value in experiment [1] is given as “+0.7”. Also, in experiment [2], the “ΔLicorice intensity” value is −0.5, the “ΔLingering intensity” value is recorded as −0.8 and the “ΔSweet intensity tostevia extract solution” value is recorded as “+0.3”.

For malonyl rebaudioside A [Malonyl Reb A], the “Sweet intensity of the compound solution” value in experiment [3] (setting [6]) is on record as 0. Also, the “Sweet intensity of the compound and R1 blend solution” value in experiment [3] (setting [7]) worked out at 1.3.

As for malonyl rebaudioside E [Malonyl Reb E], the “Sweet intensity of the compound solution” value in experiment [3] (setting [6]) is reported as 0.13. Further, the “Sweet intensity of the compound and R1 blend solution” value in experiment [3] (setting [7]) stood at 1.5.

As to α-mogroside IV, in experiment [3] (setting [6]), the “Sweet intensity of the compound solution” value is 0.13. Further, in experiment [3] (setting [7]), the “Sweet intensity of the compound and R1 blend solution” value was 1.8.
